Results reported in paper PMC7898037, “Improving mitochondria and ER stability helps eliminate upper motor neuron degeneration that occurs due to mSOD1 toxicity and TDP‐43 pathology” (Clinical and Translational Medicine, 2021).

Legend:
[1] = tested on: WT‐UeGFP mice; test: Hanging wire test (max 60 s), WT‐UeGFP mice; format: in vivo; design: Mean Diff. (wire hanging), vehicle vs. NU-9 / Mean (wire hanging): unit not given here; conditions: for Hanging wire test, group mean (Mean 1 / Mean 2): WT-UeGFP mice; for wire hanging, Average / Mean (wire hanging): WT-UeGFP
Protocol: hSOD1^G93A‐UeGFP, prpTDP‐43^A315T‐UeGFP and WT‐UeGFP mice were weighed and the required NU‐9 dose per weight was calculated (20 or 100 mg/kg), which was administered once daily by oral gavage, starting at postnatal day (P)60 and continuing until P120. Animals from the untreated group received the vehicle (NMP and olive oil) only. For oral administration purposes, 20 ga × 38 mm plastic feeding tubes were used (Instech Laboratories, Inc). The gavage tip was inserted into the mouth directly over the tongue and into the pharynx. While observing the swallowing reflex, the tip was safely and smoothly slid into the esophagus. Once the administration was completed, the gavage tip was pulled straight out.
Behavior data were collected from hSOD1^G93A‐UeGFP and WT‐UeGFP mice (starting at P60 and every 7 days until P116) and from prpTDP‐43^A315T‐UeGFP mice (at P60, P90, and P120) with the following number of mice for each group: WT‐UeGFP vehicle (n = 10), hSOD1^G93A‐UeGFP vehicle (n = 6), WT‐UeGFP 20 mg/kg/day NU‐9 (n = 5), hSOD1^G93A‐UeGFP 20 mg/kg/day NU‐9 (n = 7), WT‐UeGFP 100 mg/kg/day NU‐9 (n = 11), hSOD1^G93A‐UeGFP 100 mg/kg/day NU‐9 (n = 9), prpTDP‐43^A315T‐UeGFP untreated (n ≥ 3), and prpTDP‐43^A315T‐UeGFP 100 mg/kg/day NU‐9 (n = 4) (Table S3).
Mice were placed on a wire mesh, which was then inverted and suspended above the home cage; the time when the animal fell was recorded. This test was performed three times for a maximum of 60 s each session, with a 1‐min rest period between each trial. The average performance for each session is presented as the average of the three trials.

[2] = tested on: Caco‐2; design: method as in PMID 22189273, PMID 22837812; conditions: cited from earlier work
[3] = design: method as in PMID 22189273, PMID 22837812; conditions: cited from earlier work
[4] = tested on: mice; conditions: cited from earlier work
[5] = WT-UeGFP vehicle vs. NU-9 20 mg/kg/day, P102
[6] = WT-UeGFP vehicle vs. NU-9 20 mg/kg/day, P109
[7] = WT-UeGFP vehicle vs. NU-9 20 mg/kg/day, P116
[8] = WT-UeGFP vehicle vs. NU-9 100 mg/kg/day, P102
[9] = WT-UeGFP vehicle vs. NU-9 100 mg/kg/day, P109
[10] = WT-UeGFP vehicle vs. NU-9 100 mg/kg/day, P116

For C[C@H](Oc1cc(C(F)(F)F)cc(C(F)(F)F)c1)C1CC(=O)CC(=O)C1 [NU‐9], the “Hanging wire test, group mean (Mean 1 / Mean 2)” value ([1]; NU-9 20 mg/kg/day, P102, max 60 s) was 60 s, the “Hanging wire test, group mean (Mean 1 / Mean 2)” value ([1]; NU-9 20 mg/kg/day, P109, max 60 s) was 60 s and the “Hanging wire test, group mean (Mean 1 / Mean 2)” value ([1]; NU-9 20 mg/kg/day, P116, max 60 s) was 60 s. For the same compound, the “Hanging wire test, group mean (Mean 1 / Mean 2)” value ([1]; NU-9 100 mg/kg/day, P102, max 60 s) was 60 s, the “Hanging wire test, group mean (Mean 1 / Mean 2)” value ([1]; NU-9 100 mg/kg/day, P109, max 60 s) was 60 s and the “Hanging wire test, group mean (Mean 1 / Mean 2)” value ([1]; NU-9 100 mg/kg/day, P116, max 60 s) was 59.7 s. The “Mean Diff. (wire hanging), vehicle vs. NU-9” value ([1]; WT-UeGFP vehicle vs. NU-9 20 mg/kg/day, P60) was 0, the “Mean Diff. (wire hanging), vehicle vs. NU-9” value ([1]; WT-UeGFP vehicle vs. NU-9 20 mg/kg/day, P67) was 0.3333 and the “Mean Diff. (wire hanging), vehicle vs. NU-9” value ([1]; WT-UeGFP vehicle vs. NU-9 20 mg/kg/day, P74) was 2.267. For the same compound, the “Mean Diff. (wire hanging), vehicle vs. NU-9” value ([1]; WT-UeGFP vehicle vs. NU-9 20 mg/kg/day, P81) was 0, the “Mean Diff. (wire hanging), vehicle vs. NU-9” value ([1]; WT-UeGFP vehicle vs. NU-9 20 mg/kg/day, P88) was 0 and the “Mean Diff. (wire hanging), vehicle vs. NU-9” value ([1]; WT-UeGFP vehicle vs. NU-9 20 mg/kg/day, P95) was 2. The “Hanging wire test, mean difference vehicle minus NU-9” value [1, 5] was 0 s, the “Mean Diff. (wire hanging), vehicle vs. NU-9” value [1, 5] was 0 and the “Hanging wire test, mean difference vehicle minus NU-9” value [1, 6] was 0 s. The “Mean Diff. (wire hanging), vehicle vs. NU-9” value [1, 6] was 0, the “Hanging wire test, mean difference vehicle minus NU-9” value [1, 7] was 0 s and the “Mean Diff. (wire hanging), vehicle vs. NU-9” value [1, 7] was 0. The “Mean Diff. (wire hanging), vehicle vs. NU-9” value ([1]; WT-UeGFP vehicle vs. NU-9 100 mg/kg/day, P60) was 1.273, the “Mean Diff. (wire hanging), vehicle vs. NU-9” value ([1]; WT-UeGFP vehicle vs. NU-9 100 mg/kg/day, P67) was 0 and the “Mean Diff. (wire hanging), vehicle vs. NU-9” value ([1]; WT-UeGFP vehicle vs. NU-9 100 mg/kg/day, P74) was 0. The “Mean Diff. (wire hanging), vehicle vs. NU-9” value ([1]; WT-UeGFP vehicle vs. NU-9 100 mg/kg/day, P81) was 0, the “Mean Diff. (wire hanging), vehicle vs. NU-9” value ([1]; WT-UeGFP vehicle vs. NU-9 100 mg/kg/day, P88) was 0.1818 and the “Mean Diff. (wire hanging), vehicle vs. NU-9” value ([1]; WT-UeGFP vehicle vs. NU-9 100 mg/kg/day, P95) was 0. The “Hanging wire test, mean difference vehicle minus NU-9” value [1, 8] was 0 s, the “Mean Diff. (wire hanging), vehicle vs. NU-9” value [1, 8] was 0 and the “Hanging wire test, mean difference vehicle minus NU-9” value [1, 9] was 0 s. The “Mean Diff. (wire hanging), vehicle vs. NU-9” value [1, 9] was 0, the “Hanging wire test, mean difference vehicle minus NU-9” value [1, 10] was 0.303 s and the “Mean Diff. (wire hanging), vehicle vs. NU-9” value [1, 10] was 0.303. The “wire hanging, Average” value ([1]; NU-9 20 mg/kg/day po, P60) was 60 s, the “wire hanging, Average” value ([1]; NU-9 20 mg/kg/day po, P67) was 59.6667 s and the “wire hanging, Average” value ([1]; NU-9 20 mg/kg/day po, P74) was 57.7333 s. For the same compound, the “wire hanging, Average” value ([1]; NU-9 20 mg/kg/day po, P81) was 60 s, the “wire hanging, Average” value ([1]; NU-9 20 mg/kg/day po, P88) was 60 s and the “wire hanging, Average” value ([1]; NU-9 20 mg/kg/day po, P95) was 58 s. For the same compound, the “wire hanging, Average” value ([1]; NU-9 20 mg/kg/day po, P102) was 60 s, the “wire hanging, Average” value ([1]; NU-9 20 mg/kg/day po, P109) was 60 s and the “wire hanging, Average” value ([1]; NU-9 20 mg/kg/day po, P116) was 60 s. The “Mean (wire hanging)” value ([1]; NU-9 20 mg/kg/day, P60) was 60, the “Mean (wire hanging)” value ([1]; NU-9 20 mg/kg/day, P67) was 59.67 and the “Mean (wire hanging)” value ([1]; NU-9 20 mg/kg/day, P74) was 57.73. The “Mean (wire hanging)” value ([1]; NU-9 20 mg/kg/day, P81) was 60, the “Mean (wire hanging)” value ([1]; NU-9 20 mg/kg/day, P88) was 60 and the “Mean (wire hanging)” value ([1]; NU-9 20 mg/kg/day, P95) was 58. For the same compound, the “wire hanging, Average” value ([1]; NU-9 100 mg/kg/day po, P60) was 58.7273 s, the “wire hanging, Average” value ([1]; NU-9 100 mg/kg/day po, P67) was 60 s and the “wire hanging, Average” value ([1]; NU-9 100 mg/kg/day po, P74) was 60 s. The “wire hanging, Average” value ([1]; NU-9 100 mg/kg/day po, P81) was 60 s, the “wire hanging, Average” value ([1]; NU-9 100 mg/kg/day po, P88) was 59.8182 s and the “wire hanging, Average” value ([1]; NU-9 100 mg/kg/day po, P95) was 60 s. The “wire hanging, Average” value ([1]; NU-9 100 mg/kg/day po, P102) was 60 s, the “wire hanging, Average” value ([1]; NU-9 100 mg/kg/day po, P109) was 60 s and the “wire hanging, Average” value ([1]; NU-9 100 mg/kg/day po, P116) was 59.697 s. For the same compound, the “Mean (wire hanging)” value ([1]; NU-9 100 mg/kg/day, P60) was 58.73, the “Mean (wire hanging)” value ([1]; NU-9 100 mg/kg/day, P67) was 60 and the “Mean (wire hanging)” value ([1]; NU-9 100 mg/kg/day, P74) was 60. For the same compound, the “Mean (wire hanging)” value ([1]; NU-9 100 mg/kg/day, P81) was 60, the “Mean (wire hanging)” value ([1]; NU-9 100 mg/kg/day, P88) was 59.82 and the “Mean (wire hanging)” value ([1]; NU-9 100 mg/kg/day, P95) was 60. The “Caco‐2 A→B” value [2] was 24.1 × 10^–6 cm/s, the “Caco‐2 B→A” value [2] was 1.5 × 10^–6 cm/s and the “Caco‐2 Efflux ratio” value [2] was 0.06. The “PAMPA‐BBB P e” value [3] was 8.11 × 10^–6 cm/s, the “PAMPA‐BBB classification” value [3] was “CNS+” and the MTD ([4]; ip) was 1280 mg/kg. The NOAEL ([4]; po, 7‐day repeat toxicology study) was 100 mg/kg.
